Assay results from PubChem BioAssay AID2060487 (Molecular Pharmacology Branch, DTP, NCI, 2025).

System: 997537-175-T-J1-PDC complex spheroid viability
Test: Anticancer human tumor 997537-175-T-J1-PDC patient-derived colon adenocarcinoma cell line growth inhibition [GQUAD]
Conditions: for IC50: curve of first compound; for viability, T/C: stronger effect = lower value
Description: DNA G-quadruplex Stabilizer Agents in Combinations in Complex Spheroids
A high-throughput screen of multi-cell type tumor spheroids was designed to identify active combinations of DNA G-quadruplex stabilizer agents and targeted small molecules. Complex spheroids include a stromal component modeled by human endothelial cells (HUVEC) and fibroblasts modeled by human mesenchymal stem cells (MSCs). The concentration ranges selected for each drug and investigational agent were based upon clinically achievable concentrations if the clinical Cmax of the agent was known.
Compounds. The drugs and investigational agents: pidnarulex (CX-5461; NSC782164), APTO-253 (NSC789042), BRACO-19 (NSC847499), peposertib (NSC802822), ceralasertib (NSC780249), elimusertib (NSC800525), camonsertib (NSC841442), AZD-1390 (NSC803789), olaparib (NSC753686), talazoparib (NSC767125), ART-558 (NSC835418), sotorasib (NSC818433), MRTX-1133 (NSC836407), SN-38 (NSC673596), topotecan (NSC609699), etoposide (NSC141540), doxorubicin (NSC123127), gemcitabine (NSC613327), 5-fluorouracil (NSC19893), paclitaxel (NSC125973), vemurafenib (NSC761431), panobinostat (NSC761190), R-306465 (JNJ-16241199; NSC773264), adavosertib (NSC754352), TP-3654 (NSC805149), carboplatin (NSC241240), KSQ-4279 (NSC840948), and staurosporine (NSC755774) were obtained from the National Cancer Institute (NCI) Developmental Therapeutics Program Chemical Repository (34). The FDA-approved anticancer drug set is available from the NCI Developmental Therapeutics Program. […] The stock solutions were prepared in dimethyl sulfoxide (DMSO, Sigma-Aldrich, St. Louis, MO, cat. D2650) at 800-fold the tested concentration and stored at -70 degrees C prior to their use. All drugs and investigational agents were tested over a range starting from a high concentration at or near the clinical Cmax and decreasing in half-log increments. If the clinical Cmax for an agent had not been determined, the highest concentration tested was 10 microM.
2.3 Cell Culture. All cells were maintained in an incubator at 37 degrees C and 5% CO2 with 95% humidity. The PDC lines were cultured according to standard operating procedures established by the NCI PDMR. All PDCs were thawed and cultured in Matrigel-coated flasks prepared with a working solution of 1X Ham's F-12 nutrient mix, without supplementation (Invitrogen, cat. 11765054), 100 U/mL penicillin-streptomycin (Invitrogen, cat. 15140122), and 2.5% Matrigel (Corning Inc., cat. 354248) for the first three passages. The 857933-349-R-J2-PDC line was cultured in 6C/Colon 1B media, which includes advanced DMEM/F-12 (Thermo Fisher Scientific, cat. 12634028), 10 mM HEPES (Thermo Fisher Scientific, cat. 15630080), 1X GlutaMAX supplement (Thermo Fisher Scientific, cat. 35050061), 0.1 mg/mL primocin (InvivoGen, cat. ant-pm-2), 10% defined fetal bovine serum, heat inactivated (HyClone Laboratories Inc., cat. SH30070.03HI), 50% L-WRN conditioned media (ATCC, cat. CRL-3276), 1.25 mM N-Acetyl-L-cysteine (Sigma-Aldrich, cat. A9165), 10 mM nicotinamide (Sigma-Aldrich, cat. N0636), 1X B-27 supplement (Thermo Fisher Scientific, cat. 17504044), 1X N-2 supplement (Thermo Fisher Scientific, cat. 17502048), 10 microM Y-27632 dihydrochloride (Tocris Bioscience, cat. 1254), and 50 ng/mL human EGF recombinant protein (Thermo Fisher Scientific, cat. PHG0311). The 485176-168-R4-J1-PDC line was cultured in Panc media, which includes all 6C/Colon 1B media components plus 100 ng/mL human FGF-10 (Thermo Fisher Scientific, cat. 100-26), 500 nM SB-431542 (Selleckchem, cat. S1067), and gastrin (Tocris, cat. 3006).
[…]

[1] = second compound 0.0316 µM, first compound 0.0316 µM
[2] = second compound 0.0316 µM, first compound 0.1 µM
[3] = second compound 0.0316 µM, first compound 0.316 µM
[4] = second compound 0.0316 µM, first compound 1 µM
[5] = second compound 0.0316 µM, first compound 3.16 µM
[6] = second compound 0.0316 µM, first compound 10 µM
[7] = second compound 0.1 µM, first compound 0.0316 µM
[8] = second compound 0.1 µM, first compound 0.1 µM
[9] = second compound 0.1 µM, first compound 0.316 µM
[10] = second compound 0.1 µM, first compound 1 µM
[11] = second compound 0.1 µM, first compound 3.16 µM
[12] = second compound 0.1 µM, first compound 10 µM
[13] = second compound 0.316 µM, first compound 0.0316 µM
[14] = second compound 0.316 µM, first compound 0.1 µM
[15] = second compound 0.316 µM, first compound 0.316 µM
[16] = second compound 0.316 µM, first compound 1 µM
[17] = second compound 0.316 µM, first compound 3.16 µM
[18] = second compound 0.316 µM, first compound 10 µM
[19] = second compound 1 µM, first compound 0.0316 µM
[20] = second compound 1 µM, first compound 0.1 µM
[21] = second compound 1 µM, first compound 0.316 µM
[22] = second compound 1 µM, first compound 1 µM
[23] = second compound 1 µM, first compound 3.16 µM
[24] = second compound 1 µM, first compound 10 µM
[25] = second compound 3.16 µM, first compound 0.0316 µM
[26] = second compound 3.16 µM, first compound 0.1 µM
[27] = second compound 3.16 µM, first compound 0.316 µM
[28] = second compound 3.16 µM, first compound 1 µM
[29] = second compound 3.16 µM, first compound 3.16 µM
[30] = second compound 3.16 µM, first compound 10 µM
[31] = second compound 10 µM, first compound 0.0316 µM
[32] = second compound 10 µM, first compound 0.1 µM
[33] = second compound 10 µM, first compound 0.316 µM
[34] = second compound 10 µM, first compound 1 µM
[35] = second compound 10 µM, first compound 3.16 µM
[36] = second compound 10 µM, first compound 10 µM
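Also: spheroids exposed to the agents for 7 days.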
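For viability, T/C in this document: 100% = DMSO vehicle control viability.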

**Q.** For `C=CCn1c(=O)c2cnc(Nc3ccc(N4CCN(C)CC4)cc3)nc2n1-c1cccc(C(C)(C)O)n1` + Cc1[nH]c2ccc(F)cc2c1-c1nc2c3cccnc3c3ncccc3c2[nH]1, which IC50 (second compound 0.0316 µM) is on record?
**A.** 6.61 µM

**Q.** What about the IC50 (second compound 0.1 µM) of the same molecule?
**A.** 6.38 µM

**Q.** And the IC50 (second compound 0.316 µM)?
**A.** 6.16 µM

**Q.** And the IC50 (second compound 1 µM)?
**A.** 5.5 µM

**Q.** What about the IC50 (second compound 3.16 µM) of the same molecule?
**A.** 2.24 µM

**Q.** And the IC50 (second compound 10 µM)?
**A.** 2.09 µM

**Q.** And the viability, T/C [1]?
**A.** 102%

**Q.** What about the viability, T/C [2] of the same molecule?
**A.** 68.9%

**Q.** And the viability, T/C [3]?
**A.** 82.3%

**Q.** What about the viability, T/C [4] of the same molecule?
**A.** 83.6%

**Q.** What about the viability, T/C [5] of the same molecule?
**A.** 90.9%

**Q.** And the viability, T/C [6]?
**A.** 30%

**Q.** And the viability, T/C [7]?
**A.** 105%

**Q.** What about the viability, T/C [8] of the same molecule?
**A.** 97.1%

**Q.** What about the viability, T/C [9] of the same molecule?
**A.** 89.8%

**Q.** What about the viability, T/C [10] of the same molecule?
**A.** 89.2%

**Q.** And the viability, T/C [11]?
**A.** 93.6%

**Q.** What about the viability, T/C [12] of the same molecule?
**A.** 22.2%

**Q.** What about the viability, T/C [13] of the same molecule?
**A.** 86.8%

**Q.** And the viability, T/C [14]?
**A.** 98.8%

**Q.** And the viability, T/C [15]?
**A.** 79.3%

**Q.** And the viability, T/C [16]?
**A.** 86.4%

**Q.** What about the viability, T/C [17] of the same molecule?
**A.** 84.4%

**Q.** And the viability, T/C [18]?
**A.** 25%

**Q.** What about the viability, T/C [19] of the same molecule?
**A.** 86.6%

**Q.** What about the viability, T/C [20] of the same molecule?
**A.** 102%

**Q.** What about the viability, T/C [21] of the same molecule?
**A.** 86.4%

**Q.** And the viability, T/C [22]?
**A.** 78.3%

**Q.** And the viability, T/C [23]?
**A.** 71.2%

**Q.** And the viability, T/C [24]?
**A.** 30.1%

**Q.** What about the viability, T/C [25] of the same molecule?
**A.** 92%

**Q.** What about the viability, T/C [26] of the same molecule?
**A.** 87.3%

**Q.** What about the viability, T/C [27] of the same molecule?
**A.** 72.4%

**Q.** What about the viability, T/C [28] of the same molecule?
**A.** 56.5%

**Q.** And the viability, T/C [29]?
**A.** 55%

**Q.** What about the viability, T/C [30] of the same molecule?
**A.** 6.52%

**Q.** What about the viability, T/C [31] of the same molecule?
**A.** 91.9%

**Q.** What about the viability, T/C [32] of the same molecule?
**A.** 65.1%

**Q.** What about the viability, T/C [33] of the same molecule?
**A.** 74.9%

**Q.** What about the viability, T/C [34] of the same molecule?
**A.** 66.5%

**Q.** And the viability, T/C [35]?
**A.** 42.1%

**Q.** What about the viability, T/C [36] of the same molecule?
**A.** 11.5%

**Q.** With `CC(=O)O[C@H]1C(=O)[C@@]2(C)[C@H]([C@H](OC(=O)c3ccccc3)[C@]3(O)C[C@H](OC(=O)[C@H](O)[C@@H](NC(=O)c4ccccc4)c4ccccc4)C(C)=C1C3(C)C)[C@]1(OC(C)=O)CO[C@@H]1C[C@@H]2O` + Cc1[nH]c2ccc(F)cc2c1-c1nc2c3cccnc3c3ncccc3c2[nH]1 as the molecule, how does the IC50 (second compound 0.0316 µM) read?
**A.** 2.8 µM

**Q.** What about the IC50 (second compound 0.1 µM) of the same molecule?
**A.** 4.12 µM

**Q.** What about the IC50 (second compound 0.316 µM) of the same molecule?
**A.** 4.51 µM

**Q.** What about the IC50 (second compound 1 µM) of the same molecule?
**A.** 3.63 µM

**Q.** What about the IC50 (second compound 3.16 µM) of the same molecule?
**A.** 2.19 µM

**Q.** What about the IC50 (second compound 10 µM) of the same molecule?
**A.** 1.97 µM

**Q.** And the viability, T/C [1]?
**A.** 97.5%

**Q.** And the viability, T/C [2]?
**A.** 93.3%

**Q.** What about the viability, T/C [3] of the same molecule?
**A.** 80.5%

**Q.** And the viability, T/C [4]?
**A.** 92.1%

**Q.** And the viability, T/C [5]?
**A.** 45.2%

**Q.** What about the viability, T/C [6] of the same molecule?
**A.** 0.33%

**Q.** What about the viability, T/C [7] of the same molecule?
**A.** 102%

**Q.** And the viability, T/C [8]?
**A.** 106%

**Q.** And the viability, T/C [9]?
**A.** 86.6%

**Q.** And the viability, T/C [10]?
**A.** 90.9%

**Q.** What about the viability, T/C [11] of the same molecule?
**A.** 65.6%

**Q.** And the viability, T/C [12]?
**A.** 0.32%

**Q.** What about the viability, T/C [13] of the same molecule?
**A.** 113%

**Q.** And the viability, T/C [14]?
**A.** 91%

**Q.** And the viability, T/C [15]?
**A.** 85.7%

**Q.** And the viability, T/C [16]?
**A.** 87.7%

**Q.** And the viability, T/C [17]?
**A.** 75.5%

**Q.** What about the viability, T/C [18] of the same molecule?
**A.** 0.3%

**Q.** What about the viability, T/C [19] of the same molecule?
**A.** 94.1%

**Q.** What about the viability, T/C [20] of the same molecule?
**A.** 93.3%

**Q.** What about the viability, T/C [21] of the same molecule?
**A.** 96.2%

**Q.** And the viability, T/C [22]?
**A.** 89.8%

**Q.** And the viability, T/C [23]?
**A.** 56.8%

**Q.** And the viability, T/C [24]?
**A.** 0.2%

**Q.** And the viability, T/C [25]?
**A.** 83.7%

**Q.** What about the viability, T/C [26] of the same molecule?
**A.** 93.3%

**Q.** What about the viability, T/C [27] of the same molecule?
**A.** 96.7%

**Q.** And the viability, T/C [28]?
**A.** 84.8%

**Q.** And the viability, T/C [29]?
**A.** 33.4%

**Q.** What about the viability, T/C [30] of the same molecule?
**A.** 0.38%

**Q.** What about the viability, T/C [31] of the same molecule?
**A.** 78.5%

**Q.** And the viability, T/C [32]?
**A.** 90.1%

**Q.** And the viability, T/C [33]?
**A.** 77.2%

**Q.** What about the viability, T/C [34] of the same molecule?
**A.** 78%

**Q.** What about the viability, T/C [35] of the same molecule?
**A.** 30.7%

**Q.** And the viability, T/C [36]?
**A.** 0.47%
